# Test system: SEM cells
# Assay: cell viability relative to DMSO control; higher = less cytotoxic
# Details: 48 h
# In short: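 NOMO1 or SEM (500 cells/well) or P12-Ichikawa (1000 cells/well) leukemia cells were adapted for at least four passages in each medium. They were seeded in 1536-well plates (5 μl) and pin-dosed with library compounds in DMSO over an 11-point threefold series, 47 μM to 0.79 nM. CellTiter-Glo One luminescence was read after 48 h at 37°C. Viability is the per-plate percentage relative to DMSO wells, with cell-free wells as background.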
# [1] = RPMI 5 mM glucose + 10% FBS, 0.000781 µM
# [2] = RPMI 5 mM glucose + 10% FBS, 0.00234 µM
# [3] = RPMI 5 mM glucose + 10% FBS, 0.00702 µM
# [4] = RPMI 5 mM glucose + 10% FBS, 0.0211 µM
# [5] = RPMI 5 mM glucose + 10% FBS, 0.0632 µM
# [6] = RPMI 5 mM glucose + 10% FBS, 0.19 µM
# [7] = RPMI 5 mM glucose + 10% FBS, 0.569 µM
# [8] = RPMI 5 mM glucose + 10% FBS, 1.71 µM
# [9] = RPMI 5 mM glucose + 10% FBS, 5.12 µM
# [10] = RPMI 5 mM glucose + 10% FBS, 15.4 µM
# [11] = RPMI 5 mM glucose + 10% FBS, 46.1 µM
# [12] = HPLM + 10% dialyzed FBS, 0.000781 µM
# [13] = HPLM + 10% dialyzed FBS, 0.00234 µM
# [14] = HPLM + 10% dialyzed FBS, 0.00702 µM
# [15] = HPLM + 10% dialyzed FBS, 0.0211 µM
# [16] = HPLM + 10% dialyzed FBS, 0.0632 µM
# [17] = HPLM + 10% dialyzed FBS, 0.19 µM
# [18] = HPLM + 10% dialyzed FBS, 0.569 µM
# [19] = HPLM + 10% dialyzed FBS, 1.71 µM
# [20] = HPLM + 10% dialyzed FBS, 5.12 µM
# [21] = HPLM + 10% dialyzed FBS, 15.4 µM
# [22] = HPLM + 10% dialyzed FBS, 46.1 µM
# [23] = RPMI 5 mM glucose + 10% dialyzed FBS, 0.000781 µM
# [24] = RPMI 5 mM glucose + 10% dialyzed FBS, 0.00234 µM
# [25] = RPMI 5 mM glucose + 10% dialyzed FBS, 0.00702 µM
# [26] = RPMI 5 mM glucose + 10% dialyzed FBS, 0.0211 µM
# [27] = RPMI 5 mM glucose + 10% dialyzed FBS, 0.0632 µM
# [28] = RPMI 5 mM glucose + 10% dialyzed FBS, 0.19 µM
# [29] = RPMI 5 mM glucose + 10% dialyzed FBS, 0.569 µM
# [30] = RPMI 5 mM glucose + 10% dialyzed FBS, 1.71 µM
# [31] = RPMI 5 mM glucose + 10% dialyzed FBS, 5.12 µM
# [32] = RPMI 5 mM glucose + 10% dialyzed FBS, 15.4 µM
# [33] = RPMI 5 mM glucose + 10% dialyzed FBS, 46.1 µM
Compound,cell viability [1] [%],cell viability [2] [%],cell viability [3] [%],cell viability [4] [%],cell viability [5] [%],cell viability [6] [%],cell viability [7] [%],cell viability [8] [%],cell viability [9] [%],cell viability [10] [%],cell viability [11] [%],cell viability [12] [%],cell viability [13] [%],cell viability [14] [%],cell viability [15] [%],cell viability [16] [%],cell viability [17] [%],cell viability [18] [%],cell viability [19] [%],cell viability [20] [%],cell viability [21] [%],cell viability [22] [%],cell viability [23] [%],cell viability [24] [%],cell viability [25] [%],cell viability [26] [%],cell viability [27] [%],cell viability [28] [%],cell viability [29] [%],cell viability [30] [%],cell viability [31] [%],cell viability [32] [%],cell viability [33] [%]
C[C@H](CCC(=O)O)[C@H]1CCC2C3C[C@H](O)[C@@H]4C[C@H](O)CC[C@]4(C)C3CC[C@@]21C (some centres not stated),109,122,129,131,135,102,103,117,123,107,108,,,,,,,,,,,,,,,,,,,,,,
N#CC(c1ccnc(NCCc2cccnc2)n1)c1nc2ccccc2s1 (configuration not stated),105,105,144,125,133,118,124,132,140,132,120,110,122,118,117,126,136,134,131,144,137,115,,,,,,,,,,,
CN(C)C1=CC(=CC=C1)C\2=C\3C(=O)N(NC3=C/C(=O)N2C)C4=CC=CC=C4Cl,,,,,,,,,,,,98.5,105,111,107,102,103,98.1,16.9,5.63,5.04,6.91,109,109,136,116,104,124,95.9,7.24,5.43,6.87,7.46
COc1ccc(OC)c(-c2nnc3ccc(-c4ccc(OC)c(O[C@@H]5CCOC5)c4)nn23)c1,,,,,,,,,,,,105,106,124,115,119,127,125,123,134,119,86.4,103,109,117,115,116,112,123,131,117,122,89.7
CCc1cc2c(cc1N1CCC(N3CCOCC3)CC1)C(C)(C)c1[nH]c3cc(C#N)ccc3c1C2=O,53.8,49.4,71.1,77.1,107,107,103,96.7,88.3,46.7,12.8,60.6,55,70.7,102,122,121,114,99,95.6,70.2,28.1,60.3,54.3,73.8,97.7,111,129,103,114,108,70.8,20.3
CC[N+](CC)(CC)CCOc1cccc(OCC[N+](CC)(CC)CC)c1OCC[N+](CC)(CC)CC,134,118,124,110,123,131,116,119,126,123,111,,,,,,,,,,,,117,137,121,112,144,144,122,115,128,122,128
N[S+](=O)([O-])c1cc2c(cc1Cl)NC(C(Cl)Cl)N[S+]2(=O)[O-] (configuration not stated),103,110,90.3,107,114,113,122,123,115,129,109,89,95.6,98.8,86.3,105,103,102,91.5,111,116,111,95.1,108,113,102,124,122,121,132,142,106,125
OC[C@H]1O[C@H](C[C@@H]1O)N2\C=C(F)/C(=O)NC2=O,119,115,121,121,130,102,86.9,80.3,33.9,40.6,16.3,124,113,120,86.7,55.3,47.7,46.1,44.4,35.1,31.5,12.1,110,92.8,88.5,40.5,35.1,26.5,31.1,25.6,23.3,18.1,10.8
CCCC(C)(COC(N)=O)COC(=O)NC(C)C (configuration not stated),97.3,113,140,138,127,148,147,163,134,149,160,87.5,95.9,117,111,139,120,120,131,126,123,130,88,121,144,150,138,128,156,143,139,164,153
C[C@H]1C[C@H]2[C@@H]3CC[C@](O)(C(=O)CO)[C@@]3(C)C[C@H](O)[C@@H]2[C@@]\4(C)/C=C\C(=O)\C=C14,76.9,104,90,101,90.5,102,71.3,39.2,51.5,51.2,40.2,78.4,85,76.7,87.1,86.2,75.6,57.1,41.3,47.4,46.9,42.6,90.6,92.4,101,95.7,93.2,96.3,72.1,40.9,45.7,45,33.3
CC(=O)N[C@@H]1[C@@H](NC(N)=N)\C=C(/O[C@H]1[C@H](O)[C@H](O)CO)C(O)=O,80.1,90.1,125,98.6,89,129,49.5,128,136,119,110,78.4,89.6,98.1,107,107,123,40.2,106,112,98.6,95.4,64.5,82.9,117,102,126,122,38.4,120,121,110,113
CCC[S+](=O)([O-])Nc1ccc(F)c(C(=O)c2c[nH]c3ncc(Cl)cc23)c1F,,,,,,,,,,,,108,137,121,123,123,121,129,103,107,17.9,9.67,107,120,117,121,132,131,122,120,121,46.9,9.16
CCN(CC)CCOc1ccc(Cc2ccccc2)cc1,107,98,98.9,102,95.5,102,91.9,88.4,44.9,11.8,9.79,102,101,110,88.4,92.2,102,104,89.4,87.1,75.9,46.6,108,102,101,113,93.8,110,104,101,85.1,19.4,16.9
NC(=O)Nc1sc(-c2ccc(F)cc2)cc1C(N)=O,,,,,,,,,,,,99.3,113,115,110,96.7,125,119,103,90.5,61.7,18.3,112,116,117,103,125,109,106,97.2,75.1,55.9,11
Clc1cccc(-n2nnnc2NCc2ccccc2Oc2ccccn2)c1Cl,,,,,,,,,,,,102,123,124,133,123,131,128,125,127,139,138,116,149,125,140,113,126,149,129,148,147,119
C[C@@H]1CN(Cc2ccc(F)cc2)[C@@H](C)CN1C(=O)c1cc2c(C(=O)C(=O)N(C)C)cn(C)c2cc1Cl,84.5,78.1,85,87.2,101,91.1,96.8,87.4,97.6,72.3,57,97.6,99.7,100,111,111,109,106,102,85.6,98.2,97.2,115,104,110,107,119,108,108,109,82.3,97.2,75.4
CCOC(=O)N1c2ccc(C(F)(F)F)cc2[C@@H](N(Cc2cc(C(F)(F)F)cc(C(F)(F)F)c2)C(=O)OC)C[C@H]1CC,104,108,115,121,116,110,103,109,109,103,97.3,121,111,124,124,117,113,105,113,109,125,109,118,108,118,113,129,113,118,117,120,127,116
